Results reported in ChEMBL document CHEMBL1201862, “PubChem BioAssay data set” (2004).
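The compound was tested at five concentrations on cells cultured in 96-well plates, with a 48-hour exposure period. GI50 marks 50% less growth.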 The source made the active and inactive calls. Rule as the data show it: active = GI50 up to about 1.1 µM and inactive = higher.

Legend:
Assay in all cases: NCI tumour cell line growth inhibition, 48 h
HOP-62 = tested on: HOP-62
NCI-H23 = tested on: NCI-H23
ACHN = tested on: ACHN
786-0 = tested on: 786-0
M14 = tested on: M14
CAKI-1 = tested on: CAKI-1
SN12C = tested on: SN12C
EKVX = tested on: EKVX
Malme-3M = tested on: Malme-3M
IGROV-1 = tested on: IGROV-1
HCT-15 = tested on: HCT-15
OVCAR-8 = tested on: OVCAR-8
NCI-H226 = tested on: NCI-H226
LOX IMVI = tested on: LOX IMVI
MDA-MB-435 = tested on: MDA-MB-435
SNB-19 = tested on: SNB-19
SF-268 = tested on: SF-268
DU-145 = tested on: DU-145
MOLT-4 = tested on: MOLT-4
HL-60 = tested on: HL-60

N#CC(CC(=O)O)=C(c1ccccc1)c1ccccc1
GI50 (HOP-62): > 100 µM (inactive) | GI50 (NCI-H23): > 100 µM (inactive) | GI50 (ACHN): > 100 µM (inactive) | GI50 (786-0): > 100 µM (inactive) | GI50 (M14): > 100 µM (inactive) | GI50 (CAKI-1): > 100 µM (inactive) | GI50 (SN12C): > 100 µM (inactive) | GI50 (EKVX): > 100 µM (inactive) | GI50 (Malme-3M): > 100 µM (inactive) | GI50 (IGROV-1): > 100 µM (inactive) | GI50 (HCT-15): > 100 µM | GI50 (OVCAR-8): > 100 µM (inactive) | GI50 (NCI-H226): > 100 µM (inactive) | GI50 (LOX IMVI): > 100 µM (inactive) | GI50 (MDA-MB-435): > 100 µM (inactive) | GI50 (SNB-19): > 100 µM (inactive) | GI50 (SF-268): > 100 µM (inactive)

CCCCOCCOCCOC1=C(Cl)C(=O)c2c(O)ccc(O)c2C1=O
GI50 (HOP-62): 1.19 µM (inactive) | GI50 (NCI-H23): 0.984 µM (active) | GI50 (ACHN): 1.59 µM (inactive) | GI50 (786-0): 1.79 µM (inactive) | GI50 (M14): 0.161 µM (active) | GI50 (DU-145): 1.77 µM (inactive) | GI50 (CAKI-1): 0.209 µM (active) | GI50 (SN12C): 1.61 µM (inactive) | GI50 (EKVX): 2.57 µM (inactive) | GI50 (Malme-3M): 1.46 µM (inactive) | GI50 (IGROV-1): 1.35 µM (inactive) | GI50 (HCT-15): 0.388 µM | GI50 (OVCAR-8): 1.37 µM (inactive) | GI50 (MOLT-4): 0.0138 µM (active) | GI50 (NCI-H226): 1.79 µM (inactive) | GI50 (LOX IMVI): 0.512 µM (active) | GI50 (SNB-19): 1.77 µM (inactive) | GI50 (HL-60): 0.144 µM (active) | GI50 (SF-268): 0.759 µM (active)

CCOC(OCC)[C@@H]1C[C@@H]2N(O[C@H](OC3CCCC3(c3ccccc3)c3ccccc3)[C@H](OC(C)=O)[C@@]2(CC)Cc2ccc(OC)c(OC)c2)O1 (stereo partly drawn)
GI50 (HOP-62): > 100 µM (inactive) | GI50 (NCI-H23): > 100 µM (inactive) | GI50 (ACHN): > 100 µM (inactive) | GI50 (786-0): > 100 µM (inactive) | GI50 (M14): > 100 µM (inactive) | GI50 (DU-145): > 100 µM (inactive) | GI50 (CAKI-1): > 100 µM (inactive) | GI50 (SN12C): > 100 µM (inactive) | GI50 (EKVX): > 100 µM (inactive) | GI50 (IGROV-1): > 100 µM (inactive) | GI50 (HCT-15): > 100 µM | GI50 (MOLT-4): > 100 µM (inactive) | GI50 (NCI-H226): > 100 µM (inactive) | GI50 (LOX IMVI): > 100 µM (inactive) | GI50 (MDA-MB-435): > 100 µM (inactive) | GI50 (SNB-19): > 100 µM (inactive) | GI50 (SF-268): > 100 µM (inactive)

O=C(Nc1ccc([N+](=O)[O-])cc1)C1C(=O)C(=O)N(c2ccc([N+](=O)[O-])cc2)C1=O (stereo not drawn)
GI50 (HOP-62): > 100 µM (inactive) | GI50 (NCI-H23): > 100 µM (inactive) | GI50 (ACHN): 32.8 µM (inactive) | GI50 (786-0): 67.1 µM (inactive) | GI50 (M14): 16.2 µM (inactive) | GI50 (CAKI-1): 74.6 µM (inactive) | GI50 (SN12C): > 100 µM (inactive) | GI50 (EKVX): > 100 µM (inactive) | GI50 (Malme-3M): > 100 µM (inactive) | GI50 (IGROV-1): > 100 µM (inactive) | GI50 (HCT-15): 61.1 µM | GI50 (OVCAR-8): > 100 µM (inactive) | GI50 (MOLT-4): > 100 µM (inactive) | GI50 (NCI-H226): > 100 µM (inactive) | GI50 (LOX IMVI): 16.1 µM (inactive) | GI50 (SNB-19): > 100 µM (inactive) | GI50 (HL-60): > 100 µM (inactive) | GI50 (SF-268): > 100 µM (inactive)

CCOC(=O)c1cc2c(nc1N)-c1ncccc1CC2
GI50 (HOP-62): 83.8 µM (inactive) | GI50 (NCI-H23): 37.2 µM (inactive) | GI50 (ACHN): 61.7 µM (inactive) | GI50 (786-0): 82.2 µM (inactive) | GI50 (M14): > 100 µM (inactive) | GI50 (CAKI-1): > 100 µM (inactive) | GI50 (SN12C): 94.4 µM (inactive) | GI50 (EKVX): 43.8 µM (inactive) | GI50 (Malme-3M): > 100 µM (inactive) | GI50 (IGROV-1): 49.4 µM (inactive) | GI50 (HCT-15): 32 µM | GI50 (OVCAR-8): 83.6 µM (inactive) | GI50 (MOLT-4): 47.6 µM (inactive) | GI50 (NCI-H226): 66.2 µM (inactive) | GI50 (LOX IMVI): 65.6 µM (inactive) | GI50 (SNB-19): 59.7 µM (inactive) | GI50 (HL-60): 28.1 µM (inactive) | GI50 (SF-268): > 100 µM (inactive)

O=C(c1cc2ccccc2o1)N(Cc1ccccc1)c1ccccc1
GI50 (HOP-62): 30.5 µM (inactive) | GI50 (NCI-H23): 27 µM (inactive) | GI50 (ACHN): 26.6 µM (inactive) | GI50 (786-0): 20.2 µM (inactive) | GI50 (M14): 18.6 µM (inactive) | GI50 (CAKI-1): 19.5 µM (inactive) | GI50 (SN12C): 18 µM (inactive) | GI50 (EKVX): 27 µM (inactive) | GI50 (Malme-3M): 23.7 µM (inactive) | GI50 (IGROV-1): 35.5 µM (inactive) | GI50 (HCT-15): 18 µM | GI50 (OVCAR-8): 22.9 µM (inactive) | GI50 (MOLT-4): 16.6 µM (inactive) | GI50 (NCI-H226): 15.6 µM (inactive) | GI50 (LOX IMVI): 21 µM (inactive) | GI50 (SNB-19): 35.9 µM (inactive) | GI50 (HL-60): 16.4 µM (inactive) | GI50 (SF-268): 41.4 µM (inactive)

O=[N+]([O-])/C=C/c1cccc(F)c1
GI50 (HOP-62): 10.3 µM (inactive) | GI50 (NCI-H23): 3.48 µM (inactive) | GI50 (ACHN): 2.54 µM (inactive) | GI50 (786-0): 1.66 µM (inactive) | GI50 (M14): 2.74 µM (inactive) | GI50 (DU-145): 4.47 µM (inactive) | GI50 (CAKI-1): 12.9 µM (inactive) | GI50 (SN12C): 17 µM (inactive) | GI50 (EKVX): 3.03 µM (inactive) | GI50 (Malme-3M): 15.8 µM (inactive) | GI50 (IGROV-1): 1.37 µM (inactive) | GI50 (HCT-15): 2.21 µM | GI50 (OVCAR-8): 11.7 µM (inactive) | GI50 (NCI-H226): 2.25 µM (inactive) | GI50 (LOX IMVI): 0.912 µM (active) | GI50 (MDA-MB-435): 3.24 µM (inactive) | GI50 (SNB-19): 11.7 µM (inactive) | GI50 (SF-268): 12.4 µM (inactive)

[N-]=[N+]=Nc1ccccc1-c1ccccc1[N+](=O)[O-]
GI50 (HOP-62): 87.9 µM (inactive) | GI50 (NCI-H23): 35.1 µM (inactive) | GI50 (ACHN): > 100 µM (inactive) | GI50 (786-0): 88.1 µM (inactive) | GI50 (M14): 50.9 µM (inactive) | GI50 (DU-145): 88.5 µM (inactive) | GI50 (CAKI-1): > 100 µM (inactive) | GI50 (SN12C): 97.9 µM (inactive) | GI50 (EKVX): 39.4 µM (inactive) | GI50 (Malme-3M): 26.4 µM (inactive) | GI50 (IGROV-1): > 100 µM (inactive) | GI50 (HCT-15): 42.6 µM | GI50 (OVCAR-8): 73.3 µM (inactive) | GI50 (MOLT-4): 22.1 µM (inactive) | GI50 (LOX IMVI): 48.6 µM (inactive) | GI50 (MDA-MB-435): 32.3 µM (inactive) | GI50 (SNB-19): > 100 µM (inactive) | GI50 (SF-268): 36.1 µM (inactive)
